Experimental data taken from US5563268A, “Heterobiaryl derivatives” (Dr. Karl Thomae GmbH, priority 1991, dated 1996).
Counter-ions that a name gives are not always drawn.

Assays:
human thrombocytes [1] = test: Fibrinogen binding to human thrombocytes (125I-fibrinogen, gel-filtered platelets); settings: inhibition of 125I-fibrinogen binding by 50%, 20 minutes at ambient temperature, read-out: Fibrinogen binding test ID50
Method: (§1) 1. Fibrinogen binding to human thrombocytes Blood obtained by puncture of an antecubital vein is anticoagulated with trisodium citrate (final concentration: 13 mM) and centrifuged for 10 minutes at 170 *g. The supernatant platelet-rich plasma is placed on a Sepharose 2B column (Pharmacia) and eluted with a solution of 90 mM common salt, 14 mM trisodium citrate, 5 mM glucose and 50 mM tris(hydroxymethyl)aminomethane, adjusted to pH 7.4. The gel-filtered platelets (GFP) appearing in front of the plasma proteins are used for the binding tests. 50 μl of a 60 mM calcium chloride solution, 50 μl of a 0.6 mM adenosine diphosphate solution, 100 μl of substance solution or solvent and 50 μl of fibrinogen solution (containing 3 μg ^125 I-fibrinogen) are added to 750 μl of GFP and incubated for 20 minutes at ambient temperature. The non-specific binding is measured in the presence of 3 mg/ml of cold fibrinogen. 900 μl of the incubate are carefully pipetted onto 250 μl of silicon oil (AP 38: AR 20, 1:2 v/v, Wacker Chemie) in Eppendorf vessels and centrifuged for 2 minutes at 10,000 *g. The aqueous supernatant and some of the oil are removed, the tip of the vessel with the platelet pellet is cut off and the quantity of bound fibrinogen is measured in a gamma-counter. The concentration of substance which inhibits fibrinogen binding by 50% is calculated from a series of concentrations and given as the IC50.

thrombocyte aggregation = test: Antithrombotic activity: inhibition of collagen-induced platelet aggregation (Born and Cross) in platelet-rich plasma; format: cell-based, healthy volunteers (human); settings: 10 min, human platelet-rich plasma, 10 minutes incubation at 37° C.
Method: Method The thrombocyte aggregation is measured using the Born and Cross method (J. Physiol. 170: 397 (1964)) in platelet-rich plasma taken from healthy volunteers. To inhibit coagulation the blood is mixed with 3.14% sodium citrate in a ratio by volume of 1:10. Collagen-induced aggregation The pattern of the decrease in optical density of the platelet suspension is photometrically measured and recorded after the addition of the aggregation-triggering substance. The rate of aggregation is concluded from the angle of inclination of the density curve. The point on the curve where there is maximum light transmittance is used to calculate the optical density. The amount of collagen used is as small as possible but sufficient to produce an irreversible reaction curve. Standard commercial collagen produced by Hormonchemie of Munich is used. Before the addition of the collagen the plasma is incubated for 10 minutes with the substance at 37° C. From the measurements obtained an EC50 is determined graphically, indicating a 50% change in the optical density in terms of the inhibition of aggregation.

human thrombocytes [2] = test: Fibrinogen binding test on human thrombocytes with 125I-fibrinogen replaced by a 3H-labelled ligand (footnote *); settings: * 125I fibrinogen replaced by 3H-labelled (3S,5S)-5-[(4amidino-4-biphenylyl)-oxymethyl... pyrrolidon ligand; 20 min; read-out: Fibrinogen binding test ID50
Method: as §1, with “The gel-filtered platelets (GFP) appearing in front of the plasma proteins are used for the binding tests. 50 μl of a 60 mM calcium chloride solution, 50 μl of a 0.6 mM adenosine diphosphate solution, 100 μl of substance solution or solvent and 50 μl of fibrinogen solution (containing 3 μg ^125 I-fibrinogen) are added to 750 μl of GFP and incubated for 20 minutes at ambient temperature.” left out, “IC50. | *^125 I fibrinogen was replaced by [^3 […]” for “IC50.”

mice = test: Tolerability after intravenous administration to mice; format: in vivo; settings: intravenous administration of 30 mg/kg to three mice
human thrombocytes [3] = test: Antiaggregatory activity ex vivo after oral administration to rats, rat plasma in the presence of human thrombocytes; parameters: species or system rat (treated animals; settings: 10 mg/kg oral, two hours after administration, rat plasma with human thrombocytes

SMILES	IC50 (human thrombocytes [1]) [nM]	EC50 (thrombocyte aggregation) [nM]	IC50 (human thrombocytes [2]) [nM]	deaths (mice)	antiaggregatory activity (human thrombocytes [3])
COC(=O)[C@H]1CC[C@H](NC(=O)c2cc(-c3ccc(CN)cc3)nn(C)c2=O)CC1 [Example 5, 6-[4-(Aminomethyl)-phenyl]-4-[[trans-4-(methoxycarbonyl)-cyclohexyl]-aminocarbonyl]-2-methyl-(2H)-pyridazin-3-one-hydrochloride]	6200	3000	–	–	–
N=C(N)c1ccc(-c2cc(C(=O)N[C@H]3CC[C@H](C(=O)O)CC3)c(=O)n(CC(=O)N3CCOCC3)n2)cc1 [1(30), 6-(4-amidinophenyl)-4-[(trans-4-carboxycyclohexyl)-aminocarbonyl]-2-[(morpholinocarbonyl)-methyl]-(2H)-pyridazin-3-one-hydrochloride]	–	100	33	–	–
COC(=O)CC1CCN(C(=O)c2cnc(-c3ccc(C(=N)N)cc3)nc2OC)CC1 [2(15), 2-(4-amidinophenyl)-4-methoxy-5-[4-[(methoxycarbonyl)-methyl]-piperidinocarbonyl]-pyrimidine-hydrochloride]	52000	5200	–	–	–
Cn1nc(-c2ccc(C(=N)N)cc2)cc(C(=O)NCCCCC(=O)O)c1=O [Example 1, 6-(4-Amidinophenyl)-4-[(4-carboxybutyl)-aminocarbonyl]-2-methyl-(2H)-pyridazin-3-one]	130	420	–	did not cause any deaths	–
Cl.Cn1nc(-c2ccc(CN)cc2)cc(C(=O)N[C@H]2CC[C@H](C(=O)O)CC2)c1=O [Example 4, 6-[4-(Aminomethyl)-phenyl]-4-[(trans-4-carboxy-cyclohexyl)-aminocarbonyl]-2-methyl-(2H)-pyridazin-3-one-hydrochloride]	370	790	–	did not cause any deaths	–
COC(=O)NC(=N)c1ccc(-c2cc(C(=O)N[C@H]3CC[C@H](C(=O)OC)CC3)c(=O)n(C)n2)cc1 [Example 3, 6-[4-[N-(Methoxycarbonyl)-amidino]-phenyl]-4-[[trans-4-(methoxycarbonyl)-cyclohexyl]-aminocarbonyl]-2-methyl-(2H)-pyridazin-3-one]	2200	> 300000	–	did not cause any deaths	showed an antiaggregatory activity
COC(=O)[C@H]1CC[C@H](N(C)C(=O)c2cc(-c3ccc(C(=N)N)cc3)nn(C)c2=O)CC1 [2(17), 6-(4-amidinophenyl)-4-[N-[trans-4-(methoxycarbonyl)-cyclohexyl]-N-methyl-aminocarbonyl]-2-methyl-(2H)-pyridazin-3-one-hydrochloride]	2300	1300	–	–	–
Cn1nc(-c2ccc(C(=N)N)cc2)cc(C(=O)N(C)[C@H]2CC[C@H](C(=O)O)CC2)c1=O [1(16), 6-(4-amidinophenyl)-4-[N-(trans-4-carboxycyclohexyl)-N-methyl-aminocarbonyl]-2-methyl-(2H)-pyridazin-3-one]	55	160	–	did not cause any deaths	–
N=C(N)c1ccc(-c2cc(C(=O)N[C@H]3CC[C@H](C(=O)O)CC3)cnn2)cc1 [1(20), 3-(4-amidinophenyl)-5-[(trans-4-carboxycyclohexyl)-aminocarbonyl]-pyridazine]	57	290	–	did not cause any deaths	–
Cn1nc(-c2ccc(C(=N)N)cc2)cc(C(=O)N[C@H]2CC[C@H](C(=O)O)CC2)c1=O [1(4), 6-(4-amidinophenyl)-4-[(trans-4-carboxycyclohexyl)-aminocarbonyl]-2-methyl-(2H)-pyridazin-3-one]	37	540	–	did not cause any deaths	–

The next lines start with results.

IC50 (human thrombocytes [1]) [nM]	EC50 (thrombocyte aggregation) [nM]	IC50 (human thrombocytes [2]) [nM]	SMILES	deaths (mice)	antiaggregatory activity (human thrombocytes [3])
4400	12000	–	N=C(N)c1ccc(-c2ccc(Nc3ccc(CCC(=O)O)cc3)nn2)cc1 [1(7), 6-(4-amidinophenyl)-3-[4-(2-carboxyethyl)-phenylamino]-pyridazine]	–	–
–	310	33	N=C(N)c1ccc(-c2cc(C(=O)N[C@H]3CC[C@H](C(=O)O)CC3)c(=O)n(Cc3ccccc3)n2)cc1 [1(18), 6-(4-amidinophenyl)-2-benzyl-4-[(trans-4-carboxycyclohexyl)-aminocarbonyl]-(2H)-pyridazin-3-one]	–	–
200	390	–	N=C(N)c1ccc(-c2cc(C(=O)NCCCCC(=O)O)c(=O)[nH]n2)cc1 [1(3), 6-(4-amidinophenyl)-4-[(4-carboxybutyl)-aminocarbonyl]-2H-pyridazin-3-one]	–	–
3200	1900	–	COC(=O)CCCCNC(=O)c1cc(-c2ccc(C(=N)N)cc2)nn(C)c1=O [2(1), 6-(4-amidinophenyl)-4-[[4-(methoxycarbonyl)-butyl]-aminocarbonyl]-2-methyl-(2H)-pyridazin-3-one]	–	–
580	1200	–	N=C(N)c1ccc(-c2ccc(N[C@H]3CC[C@H](C(=O)O)CC3)nn2)cc1 [1(11), 6-(4-amidinophenyl)-3-[(trans-4-carboxycyclohexyl)-amino]-pyridazine]	–	–
1900	360	–	COC(=O)[C@H]1CC[C@H](NC(=O)c2cc(-c3ccc(C(=N)N)cc3)nn(C)c2=O)CC1 [Example 2, 6-(4-Amidinophenyl)-4-[[trans-4-(methoxycarbonyl)-cyclohexyl]-aminocarbonyl]-2-methyl-(2H)-pyridazin-3-one]	–	–
1700	39000	–	N=C(N)c1ccc(-c2ccc(Oc3ccc(CCC(=O)O)cc3)nn2)cc1 [1(8), 6-(4-amidinophenyl)-3-[4-(2-carboxyethyl)-phenyloxy]-pyridazine]	–	–
62	320	–	COc1nnc(-c2ccc(C(=N)N)cc2)cc1C(=O)N[C@H]1CC[C@H](C(=O)O)CC1 [1(21), 6-(4-amidinophenyl)-4-[(trans-4-carboxycyclohexyl)-aminocarbonyl]-3-methoxy-pyridazine]	–	–
33	100	–	COc1nc(-c2ccc(C(=N)N)cc2)ncc1C(=O)N1CCC(CC(=O)O)CC1 [1(14), 2-(4-amidinophenyl)-5-[4-(carboxymethyl)-piperidinocarbonyl]-4-methoxy-pyrimidine]	–	–
